This note sets out measurements from US20180265515A1 (Genentech, Inc., priority 2015, published 2018).

For assay [1], the system named is JAK1-dependent STAT6 phosphorylation downstream of IL-13 stimulation in BEAS-2B human bronchial epithelial cells. Description: JAK1 pathway assay in BEAS-2B cells (IL-13 stimulated STAT6 phosphorylation, MSD). It is filed as cell-based. The settings on record: read-out: P-STAT6 BEAS2B + IL13 IC50. Put shortly:
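BEAS-2B human bronchial epithelial cells, plated the day before in complete growth medium, were preincubated with compound for 1 hr at 37° C (0.2% DMSO final), then stimulated with IL-13 at its EC90 for 15 min. STAT6 phosphorylation in lysates was read by MSD; EC50 was taken as 50% inhibition versus DMSO control.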

For assay [2], the target named is T1, isolated recombinant JAK2 kinase domain (Homo sapiens, UniProt O60674).
T1 construct: The activity of the isolated recombinant JAK1 and JAK2 kinase domain was measured
T1 sequence (O60674 849-1124 limits assumed): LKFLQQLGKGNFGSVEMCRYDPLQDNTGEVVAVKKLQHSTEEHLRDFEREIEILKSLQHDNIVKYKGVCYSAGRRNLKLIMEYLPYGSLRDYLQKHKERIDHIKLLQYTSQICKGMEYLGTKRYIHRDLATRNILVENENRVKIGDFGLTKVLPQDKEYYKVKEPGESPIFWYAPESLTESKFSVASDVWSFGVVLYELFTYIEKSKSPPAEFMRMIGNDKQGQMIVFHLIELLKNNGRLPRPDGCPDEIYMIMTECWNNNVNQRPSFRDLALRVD
The assay can be described thus: JAK2 enzyme assay (Caliper LabChip, Ki). Format: biochemical. Conditions: 25 μM ATP. Put shortly: (§1)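 Caliper LabChip read-out: fraction of FAM-labeled JAK3-derived peptide converted to phosphopeptide by isolated JAK1/JAK2 kinase domain. Reaction 30 min, 22° C; stopped with EDTA, 50 mM final. Ki via Morrison tight-binding model, Ki=Ki,app/(1+[ATP]/Km,app).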

The target of assay [3] is T2, isolated recombinant JAK1 kinase domain (Homo sapiens, UniProt P23458).
T2 construct: The activity of the isolated recombinant JAK1 and JAK2 kinase domain was measured
T2 sequence (P23458 875-1153 limits assumed): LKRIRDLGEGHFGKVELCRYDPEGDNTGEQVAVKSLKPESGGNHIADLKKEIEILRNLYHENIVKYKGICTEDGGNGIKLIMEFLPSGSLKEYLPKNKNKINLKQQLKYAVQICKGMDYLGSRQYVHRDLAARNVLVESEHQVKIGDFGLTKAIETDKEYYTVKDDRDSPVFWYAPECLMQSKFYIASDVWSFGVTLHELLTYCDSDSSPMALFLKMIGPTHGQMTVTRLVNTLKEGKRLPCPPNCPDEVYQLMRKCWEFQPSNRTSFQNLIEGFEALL
Description: JAK1 enzyme assay (Caliper LabChip, Ki). Format: biochemical. Conditions: recombinant JAK1 kinase domain, 25 μM ATP. A digest of the protocol:
as §1

Molecules are shown by their SMILES.

The IC50 is the concentration at which inhibition is half-maximal. Broadly, the Ki is the equilibrium dissociation constant of an inhibitor or competing ligand from its target. With `CC(C)Sc1ccc(OC(F)F)c(-c2nn(CC(=O)N3CCN(CC4CCN(CC(=O)N(C)C)CC4)CC3)cc2NC(=O)c2cnn3cccnc23)c1` [Example 140, N-[3-[2-(difluoromethoxy)-5-isopropylsulfanyl-phenyl]-1-[2-[4-[[1-[2-(dimethylamino)-2-oxo-ethyl]-4-piperidyl]methyl]piperazin-1-yl]-2-oxo-ethyl]pyrazol-4-yl]pyrazolo[1,5-a]pyrimidine-3-carboxamide], in assay [1], the IC50 was found to be 51 nM. Moreover, the Ki in assay [2] came to 1.7 nM; in assay [3] it was 0.63 nM.

For `CC(C)Sc1ccc(OC(F)F)c(-c2nn(CC(=O)N3CCN(C)CC3)cc2NC(=O)c2cnn3cccnc23)c1` [Example 117, N-[3-[2-(difluoromethoxy)-5-isopropylsulfanyl-phenyl]-1-[2-(4-methylpiperazin-1-yl)-2-oxo-ethyl]pyrazol-4-yl]pyrazolo[1,5-a]pyrimidine-3-carboxamide], the concentration for half-maximal inhibition (IC50) in assay [1] turned out to be 21 nM. The Ki in assay [2] is 1.4 nM; in assay [3], 0.7 nM.

Regarding `CCSc1ccc(OC(F)F)c(-c2n[nH]cc2NC(=O)c2cnn3cccnc23)c1` [Example 192, N-[3-[2-(difluoromethoxy)-5-ethylsulfanyl-phenyl]-1H-pyrazol-4-yl]pyrazolo[1,5-a]pyrimidine-3-carboxamide], the IC50 in assay [1] amounted to 2 nM. For the same compound, the Ki in assay [2] is 0.055 nM; in assay [3], 0.12 nM.

For `CC(=O)N1CCN(CC2CCN(C(=O)Cn3cc(NC(=O)c4cnn5cccnc45)c(-c4cc(SC(C)C)ccc4OC(F)F)n3)CC2)CC1` [Example 157, N-[1-[2-[4-[(4-acetylpiperazin-1-yl)methyl]-1-piperidyl]-2-oxo-ethyl]-3-[2-(difluoromethoxy)-5-isopropylsulfanyl-phenyl]pyrazol-4-yl]pyrazolo[1,5-a]pyrimidine-3-carboxamide], the IC50 in assay [1] was determined as 47 nM. Besides, the Ki in assay [2] stood at 0.77 nM; in assay [3], 0.27 nM.

`CC(C)Sc1ccc(OC(F)F)c(-c2nn(CC(=O)N3CCC(C(=O)N4CCN(C)CC4)CC3)cc2NC(=O)c2cnn3cccnc23)c1` [Example 137, N-[3-[2-(difluoromethoxy)-5-isopropylsulfanyl-phenyl]-1-[2-[4-(4-methylpiperazine-1-carbonyl)-1-piperidyl]-2-oxo-ethyl]pyrazol-4-yl]pyrazolo[1,5-a]pyrimidine-3-carboxamide]: the IC50 in assay [1] amounted to 66 nM. In addition, the inhibitory constant (Ki) in assay [2] amounted to 1.5 nM; in assay [3], 0.5 nM.

Take `CSc1ccc(OC(F)F)c(-c2nn(CC(=O)N3CCC(N(C)CC(C)C#N)CC3)cc2NC(=O)c2cnn3cccnc23)c1` (stereo not drawn) [Example 29, N-[1-[2-[4-[2-cyanopropyl(methyl)amino]-1-piperidyl]-2-oxo-ethyl]-3-[2-(difluoromethoxy)-5-methylsulfanyl-phenyl]pyrazol-4-yl]pyrazolo[1,5-a]pyrimidine-3-carboxamide]: in assay [1], the IC50 stood at 9 nM. The values for the Ki in assay [2] and in assay [3] were 0.37 nM and 0.26 nM, respectively.

Consider `CC(C)Sc1ccc(OC(F)F)c(-c2nn(CC(=O)N3CCN(CC4(C)COC4)CC3)cc2NC(=O)c2cnn3cccnc23)c1` [Example 127, N-[3-[2-(difluoromethoxy)-5-isopropylsulfanyl-phenyl]-1-[2-[4-[(3-methyloxetan-3-yl)methyl]piperazin-1-yl]-2-oxo-ethyl]pyrazol-4-yl]pyrazolo[1,5-a]pyrimidine-3-carboxamide], for which the IC50 in assay [1] was 35 nM. Moreover, the Ki in assay [2] was 0.97 nM; in assay [3], 0.48 nM.

Regarding `O=C(Nc1cn(CC(=O)N2CCC(N3CCOCC3)CC2)nc1-c1cc(SC2COC2)ccc1OC(F)F)c1cnn2cccnc12` [Example 182, N-[3-[2-(difluoromethoxy)-5-(oxetan-3-ylsulfanyl)phenyl]-1-[2-(4-morpholino-1-piperidyl)-2-oxo-ethyl]pyrazol-4-yl]pyrazolo[1,5-a]pyrimidine-3-carboxamide], the IC50 in assay [1] was found to be 91 nM. Also, the Ki was 1.9 nM in assay [2] and 0.92 nM in assay [3].

As to `CC(C)Sc1ccc(OC(F)F)c(-c2nn(CC(=O)N3CCN(C4CCN(CC(=O)N(C)C)CC4)CC3)cc2NC(=O)c2cnn3cccnc23)c1` [Example 142, N-[3-[2-(difluoromethoxy)-5-isopropylsulfanyl-phenyl]-1-[2-[4-[1-[2-(dimethylamino)-2-oxo-ethyl]-4-piperidyl]piperazin-1-yl]-2-oxo-ethyl]pyrazol-4-yl]pyrazolo[1,5-a]pyrimidine-3-carboxamide], in assay [1], the IC50 came to 110 nM. Moreover, the figures for the Ki in assay [2] and in assay [3] were 2 nM and 0.88 nM, respectively.

With `CC(C)Sc1ccc(OC(F)F)c(-c2nn(CC(=O)N3CCC(N4CCOC[C@@H]4CO)CC3)cc2NC(=O)c2cnn3cccnc23)c1` [Example 158, N-[3-[2-(difluoromethoxy)-5-isopropylsulfanyl-phenyl]-1-[2-[4-[(3S)-3-(hydroxymethyl)morpholin-4-yl]-1-piperidyl]-2-oxo-ethyl]pyrazol-4-yl]pyrazolo[1,5-a]pyrimidine-3-carboxamide], in assay [1], the IC50 was 91 nM. The Ki was determined as 1 nM in assay [2] and 0.59 nM in assay [3].

On to `O=C(Nc1cn(CCN[C@@H]2CCOC2)nc1-c1cc(SC2COC2)ccc1OC(F)F)c1cnn2cccnc12` [Example 177, N-[3-[2-(difluoromethoxy)-5-(oxetan-3-ylsulfanyl)phenyl]-1-[2-[[(3R)-tetrahydrofuran-3-yl]amino]ethyl]pyrazol-4-yl]pyrazolo[1,5-a]pyrimidine-3-carboxamide], for which the IC50 in assay [1] came out at 18 nM. For the same compound, the results for the Ki in assay [2] and in assay [3] were 0.48 nM and 0.81 nM, respectively.

Regarding `CSc1ccc(OC(F)F)c(-c2nn(CC(=O)N3CCC(N4CCN(C)CC4)CC3)cc2NC(=O)c2cnn3cccnc23)c1` [Example 63, N-[3-[2-(difluoromethoxy)-5-(methylsulfanyl)phenyl]-1-[2-[4-(4-methylpiperazin-1-yl)piperidin-1-yl]-2-oxoethyl]-1H-pyrazol-4-yl]pyrazolo[1,5-a]pyrimidine-3-carboxamide], the IC50 in assay [1] was found to be 22 nM. Besides, the results for the Ki in assay [2] and in assay [3] were 0.7 nM and 0.35 nM, respectively.

Turning to `CSc1ccc(OC(F)F)c(-c2nn(CC(=O)N3CCC(N(C)CC4OCCO4)CC3)cc2NC(=O)c2cnn3cccnc23)c1` [Example 50], the IC50 in assay [1] was 18 nM. For the same compound, the Ki is 0.96 nM in assay [2] and 0.5 nM in assay [3].

Regarding `C[S+]([O-])c1ccc(OC(F)F)c(-c2n[nH]cc2NC(=O)c2cnn3cccnc23)c1` (stereo not drawn) [Example 3, N-[3-[2-(difluoromethoxy)-5-methylsulfinyl-phenyl]-1H-pyrazol-4-yl]pyrazolo[1,5-a]pyrimidine-3-carboxamide], in assay [1], the half-inhibitory concentration (IC50) came out at 430 nM. Moreover, the Ki in assay [2] came out at 0.57 nM; in assay [3] it was 1.7 nM.

For the compound `CSc1ccc(OC(F)F)c(-c2nn(CC(=O)N3CC4CCCNC4C3)cc2NC(=O)c2cnn3cccnc23)c1` (stereo not drawn) [Example 35, N-[1-[2-(1,2,3,4,4a,5,7,7a-octahydropyrrolo[3,4-b]pyridin-6-yl)-2-oxo-ethyl]-3-[2-(difluoromethoxy)-5-methylsulfanyl-phenyl]pyrazol-4-yl]pyrazolo[1,5-a]pyrimidine-3-carboxamide], the IC50 in assay [1] was determined as 19 nM. For the same compound, the inhibition constant (Ki) amounted to 0.4 nM in assay [2] and 0.39 nM in assay [3].

As for `CC(C)Sc1ccc(OC(F)F)c(-c2nn(CCN)cc2NC(=O)c2cnn3cccnc23)c1` [Example 112, N-[1-(2-aminoethyl)-3-[2-(difluoromethoxy)-5-isopropylsulfanyl-phenyl]pyrazol-4-yl]pyrazolo[1,5-a]pyrimidine-3-carboxamide], the IC50 in assay [1] was 18 nM. Besides, the Ki in assay [2] and in assay [3] was 0.39 nM in each case.

Take `CSc1ccc(OC(F)F)c(-c2nn(CC(=O)N3CCC(N4CCC(C#N)C4)CC3)cc2NC(=O)c2cnn3cccnc23)c1` (stereo not drawn) [Example 32, N-[1-[2-[4-(3-cyanopyrrolidin-1-yl)-1-piperidyl]-2-oxo-ethyl]-3-[2-(difluoromethoxy)-5-methylsulfanyl-phenyl]pyrazol-4-yl]pyrazolo[1,5-a]pyrimidine-3-carboxamide]: the IC50 in assay [1] worked out at 11 nM. Besides, the Ki in assay [2] was determined as 0.33 nM; in assay [3], 0.23 nM.

`CSc1ccc(OC(F)F)c(-c2nn(C[C@H]3CCCN3C)cc2NC(=O)c2cnn3cccnc23)c1` [Example 37, N-[3-[2-(difluoromethoxy)-5-methylsulfanyl-phenyl]-1-[[(2R)-1-methylpyrrolidin-2-yl]methyl]pyrazol-4-yl]pyrazolo[1,5-a]pyrimidine-3-carboxamide]: the IC50 in assay [1] is 9.9 nM. Moreover, the Ki in assay [2] stood at 0.48 nM; in assay [3], 0.22 nM.

As for `Cn1cc(NC(=O)c2cnn3cccnc23)c(-c2cc(SC(CF)CF)ccc2OC(F)F)n1` [Example 159, N-[3-[2-(difluoromethoxy)-5-[(1,3-difluoropropan-2-yl)sulfanyl]phenyl]-1-methyl-1H-pyrazol-4-yl]pyrazolo[1,5-a]pyrimidine-3-carboxamide], the IC50 in assay [1] came out at 3.9 nM. In addition, the Ki in assay [2] turned out to be 0.097 nM; in assay [3] it was 0.16 nM.

With `CSc1ccc(OC(F)F)c(-c2nn(C3(CC#N)CNC3)cc2NC(=O)c2cnn3cccnc23)c1` [Example 77, N-(1-(3-(cyanomethyl)azetidin-3-yl)-3-(2-(difluoromethoxy)-5-(methylthio)phenyl)-1H-pyrazol-4-yl)pyrazolo[1,5-a]pyrimidine-3-carboxamide], in assay [1], the IC50 is 27 nM. For the same compound, the Ki in assay [2] was found to be 0.33 nM; in assay [3], 0.47 nM.
